Laboratory results reported in ChEMBL document CHEMBL3507680, “University of Dundee, Gates Library screen for HepG2 cell viability”.

Assay: Human HepG2 cell viability assay in 384 well format
Format: toxicity, cell-based
Design: dose 125 nL, time 70.5 hour; cytotoxicity at 70.5 h: concentration not given beside the values
Settings: HepG2 cells, read-out: Inhibition

Question: With `CN(C)CCOCC1CN(C(=O)N2CCCC2)Cc2ccnn2C1` (configuration not stated) as the compound, how does the cytotoxicity at 70.5 h read?
Answer: -5.66%

Question: Which cytotoxicity at 70.5 h does the source give for `N#Cc1ccc(CNCCS(=O)(=O)N2CCc3ccccc32)cc1` here?
Answer: -10.2%

Question: For `c1ccc(-c2ncc3c(n2)C2(CCN(CC4CC4)C2)COC3)cc1` (configuration not stated), which cytotoxicity at 70.5 h is on record?
Answer: 15.2%

Question: Which cytotoxicity at 70.5 h does the source give for `COC(=O)[C@@H]1C[C@@H](O)CN1Cc1ccn(-c2ccc(F)cc2)n1` here?
Answer: -10.3%

Question: Which cytotoxicity at 70.5 h does the source give for `CCn1cc(C(=O)N(C)[C@@H]2CC[C@@H](N3CCCC3)[C@@H]2O)c(C)n1` here?
Answer: -5.26%

Question: With `c1ccc(NCc2cn3c(n2)CNCC3)nc1` as the compound, how does the cytotoxicity at 70.5 h read?
Answer: 2.18%

Question: Which cytotoxicity at 70.5 h does the source give for `CC1CCN(CCCNC(=O)NC(C)c2nncn2C)CC1` (configuration not stated) here?
Answer: -3.78%

Question: Which cytotoxicity at 70.5 h does the source give for `Cc1cccc(-n2cnc(Cl)c2C(=O)O)c1` here?
Answer: -16.5%

Question: With `CCn1cnnc1CNC(=O)c1cc(Cl)c(I)cc1OC` as the compound, how does the cytotoxicity at 70.5 h read?
Answer: -7.1%

Question: With `CN(CCC(F)(F)F)C(=O)C1CCCN1C(=O)OC(C)(C)C` (configuration not stated) as the compound, how does the cytotoxicity at 70.5 h read?
Answer: 0.473%

Question: For `Cc1n[nH]c(C)c1CN1CCC(c2cc(C(C)C)n[nH]2)CC1`, which cytotoxicity at 70.5 h is on record?
Answer: 1.2%

Question: Which cytotoxicity at 70.5 h does the source give for `CCO[C@H]1C[C@@H](O)C12CCN(S(=O)(=O)c1ccccc1OC)CC2` here?
Answer: -13.9%

Question: Which cytotoxicity at 70.5 h does the source give for `CC(NS(=O)(=O)CCCC#N)c1cccc(-n2cccn2)c1` (configuration not stated) here?
Answer: -10.5%

Question: For `O=C1CC(c2ccc(C(=O)O)cc2)c2ncn(-c3ccccc3)c2N1` (configuration not stated), which cytotoxicity at 70.5 h is on record?
Answer: -6.45%

Question: Which cytotoxicity at 70.5 h does the source give for `O=C1CO[C@H]2CN(C3CCOCC3)C[C@H]2N1Cc1ccc(F)cc1` here?
Answer: 16.1%

Question: With `CN(C)c1ncncc1NC(=O)Cc1c[nH]c2ccc(F)cc12` as the compound, how does the cytotoxicity at 70.5 h read?
Answer: -2.95%

Question: For `COc1ccc(-c2cnc3n2CCNC32CCN(S(C)(=O)=O)CC2)cc1`, which cytotoxicity at 70.5 h is on record?
Answer: -6.19%

Question: With `O=C(Nc1ccccc1)N1CCn2c(nnc2C2CCCN2)C1` (configuration not stated) as the compound, how does the cytotoxicity at 70.5 h read?
Answer: -9.71%

Question: With `CN1CCC2(CC1)CN(C)C(=O)C[C@@H]2C(F)(F)F` as the compound, how does the cytotoxicity at 70.5 h read?
Answer: -2.18%

Question: For `CN(C)[C@@H]1CN(Cc2ccccn2)C[C@H]1c1cn(C)c2ccccc12`, which cytotoxicity at 70.5 h is on record?
Answer: 12%

Question: Which cytotoxicity at 70.5 h does the source give for `Cc1cc2n(n1)[C@@H](C(F)(F)F)C[C@@H](C1CCCN(C(=O)C(C)C)C1)N2` (some centres not stated) here?
Answer: -3.95%

Question: Which cytotoxicity at 70.5 h does the source give for `CC(C)c1nn(C)c(N2CCOCC2)c1CN[C@H](C)CO` here?
Answer: -1.16%

Question: For `O=C(CCC1CCCO1)NCCc1ccccn1` (configuration not stated), which cytotoxicity at 70.5 h is on record?
Answer: -10%

Question: For `CCN(CC)CCC(=O)N1CCc2c(nc(N(C)C)nc2N(C)C)C1`, which cytotoxicity at 70.5 h is on record?
Answer: 29.3%

Question: Which cytotoxicity at 70.5 h does the source give for `Cc1ccc(C(=O)Nc2ccc3c(c2)N(C)CCN(C)C3)c(=O)[nH]1` here?
Answer: -7.32%

Question: For `O=C(CC1CC1)N1CCn2cc(Cn3cncn3)nc2C1`, which cytotoxicity at 70.5 h is on record?
Answer: -18.5%

Question: For `Cc1nc(CCNC(=O)NCC(O)c2cccc(Cl)c2)cs1` (configuration not stated), which cytotoxicity at 70.5 h is on record?
Answer: -7.03%

Question: With `CN1C(=O)C2(CC(=O)Nc3[nH]ncc32)c2cc(Cl)ccc21` (configuration not stated) as the compound, how does the cytotoxicity at 70.5 h read?
Answer: -29.3%

Question: For `CCS(=O)(=O)N1Cc2cncn2CC(C(=O)NCC2CC2)C1` (configuration not stated), which cytotoxicity at 70.5 h is on record?
Answer: 1.86%

Question: For `CCOC(=O)c1nc(CN2CCN(C(=O)NC3CCCCC3)CC2)cs1`, which cytotoxicity at 70.5 h is on record?
Answer: -7.73%

Question: Which cytotoxicity at 70.5 h does the source give for `O=C(O)c1cncc(Cc2cccc(F)c2)c1` here?
Answer: -7.96%

Question: With `O=C1CCCN1Cc1ncn2c1CN(C(=O)N1CCCC1)CCC2` as the compound, how does the cytotoxicity at 70.5 h read?
Answer: 0.134%

Question: With `CC(C)OC(=O)c1ccc(Cl)c(NC(=O)NCCN2CCOCC2)c1` as the compound, how does the cytotoxicity at 70.5 h read?
Answer: -7.91%

Question: With `Cc1cc(C)cc(C2(C(=O)N3CCCC(n4cncn4)C3)CC2)c1` (configuration not stated) as the compound, how does the cytotoxicity at 70.5 h read?
Answer: -17.8%

Question: For `CC(C)c1nccc(CN2CCCC(O)(CN3CCCC3)C2)n1` (configuration not stated), which cytotoxicity at 70.5 h is on record?
Answer: -0.735%

Question: Which cytotoxicity at 70.5 h does the source give for `O=C(NCc1csc2ccccc12)NCC1(O)CCSC1` (configuration not stated) here?
Answer: -2.26%

Question: Which cytotoxicity at 70.5 h does the source give for `CC(C)Cc1noc(C2CCN(C(=O)c3cccs3)CC2)n1` here?
Answer: -0.0683%

Question: Which cytotoxicity at 70.5 h does the source give for `COC1CCN(C(=O)CC2CCCC2)CC(=O)N(C)c2ccccc21` (configuration not stated) here?
Answer: -0.0141%

Question: For `CC(=O)N1CC(c2ccnc(Nc3nccs3)n2)C1`, which cytotoxicity at 70.5 h is on record?
Answer: -12.9%

Question: For `Cc1nonc1CN1CC[C@@](O)(C2CCC2)[C@H](C)C1`, which cytotoxicity at 70.5 h is on record?
Answer: -3.97%

Question: For `CC(C)Cc1cc(NC(=O)c2ccccc2F)n(C)n1`, which cytotoxicity at 70.5 h is on record?
Answer: -9.5%

Question: Which cytotoxicity at 70.5 h does the source give for `CC(C)c1nn2c(-c3cnn(C)c3)nnc2s1` here?
Answer: -9.47%

Question: With `COCCn1cnc2ccc(NC(=O)C3CC3)cc2c1=O` as the compound, how does the cytotoxicity at 70.5 h read?
Answer: -8.53%

Question: With `O=C(NCC1CC1)C1CSCN1S(=O)(=O)c1ccccc1` (configuration not stated) as the compound, how does the cytotoxicity at 70.5 h read?
Answer: -15.1%

Question: With `NC(=O)C1CN(C(=O)NCC2(c3ccc(F)cc3)CCC2)CCO1` (configuration not stated) as the compound, how does the cytotoxicity at 70.5 h read?
Answer: 1.35%

Question: For `Cc1noc(CN(Cc2cccc(C#N)c2)Cc2ccco2)n1`, which cytotoxicity at 70.5 h is on record?
Answer: 0.0593%

Question: Which cytotoxicity at 70.5 h does the source give for `COCC1CN(Cc2ccoc2)Cc2nn(CC3CC3)cc21` (configuration not stated) here?
Answer: 18.3%

Question: For `CC(NCc1ccccc1Br)c1ccc2[nH]c(=O)[nH]c2c1` (configuration not stated), which cytotoxicity at 70.5 h is on record?
Answer: 3.35%

Question: Which cytotoxicity at 70.5 h does the source give for `COC1CCN(C(=O)c2c(Cl)c3ccccc3n2C)CC1` here?
Answer: -9.88%

Question: For `Cn1ccc(C(=O)NC2CCC23CCN(Cc2ccc(F)cc2)CC3)c1` (configuration not stated), which cytotoxicity at 70.5 h is on record?
Answer: -0.822%

Question: With `Cc1ccccc1OC1CCN(CC(=O)Nc2cn(C)nc2C)CC1` as the compound, how does the cytotoxicity at 70.5 h read?
Answer: -1.78%

Question: For `CNC(=O)Cc1ccc(NC(=O)NC2(c3cccc(F)c3)CC2)cc1`, which cytotoxicity at 70.5 h is on record?
Answer: -3.37%

Question: For `COC(=O)COc1ccc(-c2noc(C3CCCO3)n2)cc1` (configuration not stated), which cytotoxicity at 70.5 h is on record?
Answer: 24.5%

Question: With `COCCOc1ncccc1C(=O)N(C)c1ccc(OC)nc1` as the compound, how does the cytotoxicity at 70.5 h read?
Answer: -8.37%

Question: With `COCCN1CCCC2(CCN(Cc3nnc(C4CC4)o3)C2)C1=O` (configuration not stated) as the compound, how does the cytotoxicity at 70.5 h read?
Answer: -6.43%

Question: With `CS(=O)(=O)c1ccc(CC(=O)N2CCN3CCNC(=O)C3C2)cc1` (configuration not stated) as the compound, how does the cytotoxicity at 70.5 h read?
Answer: -2.91%

Question: Which cytotoxicity at 70.5 h does the source give for `c1csc(-c2nc(CN3CCOC(Cn4cccn4)C3)co2)c1` (configuration not stated) here?
Answer: -8.17%

Question: For `Cc1cccc(C(C(=O)NCCn2cccc2)N(C)C)c1` (configuration not stated), which cytotoxicity at 70.5 h is on record?
Answer: -12.1%

Question: Which cytotoxicity at 70.5 h does the source give for `CCOC(=O)CC1CCCCN1C(=O)c1cccc2ccnn12` (configuration not stated) here?
Answer: -6.11%

Question: Which cytotoxicity at 70.5 h does the source give for `CNS(=O)(=O)c1cc(C(=O)NC2COc3ccccc3C2)ccc1OC` (configuration not stated) here?
Answer: 6.83%

Question: With `Cc1cnc(C(=O)N2CCc3ncnc(-c4cnn(C)c4)c3CC2)cn1` as the compound, how does the cytotoxicity at 70.5 h read?
Answer: 0.39%

Question: Which cytotoxicity at 70.5 h does the source give for `CCn1c(C)nnc1SCCNc1nc(C)nc2c1cnn2C` here?
Answer: -9.87%

Question: Which cytotoxicity at 70.5 h does the source give for `CN(Cc1ccsc1)C(=O)Nc1ccc(S(C)(=O)=O)nc1` here?
Answer: 2.4%

Question: Which cytotoxicity at 70.5 h does the source give for `CCC1(CC)CC(=O)N(CC(O)c2ccc(F)cc2)C1=O` (configuration not stated) here?
Answer: -9.84%

Question: Which cytotoxicity at 70.5 h does the source give for `CCOC(=O)c1coc(N2CCC(C(C)N3CCCC3)CC2)n1` (configuration not stated) here?
Answer: -1.58%

Question: Which cytotoxicity at 70.5 h does the source give for `Oc1ccc(Cl)cc1CNCc1ccccc1C(F)(F)F` here?
Answer: -2.09%

Question: For `Cc1cnn(CC2CN(Cc3nc4ccccc4c(=O)[nH]3)CCO2)c1` (configuration not stated), which cytotoxicity at 70.5 h is on record?
Answer: -4.67%

Question: For `CN(C)C(=O)N1CCC2(CCCN(c3ncccn3)C2)C1` (configuration not stated), which cytotoxicity at 70.5 h is on record?
Answer: 5.18%

Question: Which cytotoxicity at 70.5 h does the source give for `COc1ccc(C(=O)O)c(OCC(=O)NC(C)c2ccc(F)cc2)c1` (configuration not stated) here?
Answer: -6.92%

Question: With `CC(C)c1noc(CN2CCC3(CCCO3)CCC2=O)n1` (configuration not stated) as the compound, how does the cytotoxicity at 70.5 h read?
Answer: -0.624%

Question: Which cytotoxicity at 70.5 h does the source give for `c1ccc(CSc2nnc(C3CC3)s2)nc1` here?
Answer: -7.57%

Question: For `Cc1c(F)cc(C(=O)O)cc1S(=O)(=O)Nc1ccccc1`, which cytotoxicity at 70.5 h is on record?
Answer: 3.77%

Question: Which cytotoxicity at 70.5 h does the source give for `CCNC(=O)CCS(=O)(=O)Cc1ccn(-c2cccc(F)c2)n1` here?
Answer: 2.48%

Question: For `CN(C)C(=O)CS(=O)(=O)Cc1cc(Cl)c2c(c1)OCCO2`, which cytotoxicity at 70.5 h is on record?
Answer: 3.21%

Question: For `CC(C)N1CC[C@@](C)(O)[C@H](n2ccc(=O)[nH]c2=O)C1`, which cytotoxicity at 70.5 h is on record?
Answer: -7.14%

Question: With `Cc1nocc1C(=O)N1CCCC2(CCN(c3ccsc3)C2=O)C1` (configuration not stated) as the compound, how does the cytotoxicity at 70.5 h read?
Answer: -6.39%

Question: With `COc1ccc(-c2cccc3c2OC(CN)C3)cc1F` (configuration not stated) as the compound, how does the cytotoxicity at 70.5 h read?
Answer: 5.9%

Question: Which cytotoxicity at 70.5 h does the source give for `O=C(c1c2c(N3CCOCC3)ncnc2n2ccccc12)N1CCCC1` here?
Answer: -3.03%

Question: Which cytotoxicity at 70.5 h does the source give for `O=c1cc(CNS(=O)(=O)C2CC2)nc2n1CCCN(CC1CC1)C2` here?
Answer: -5.1%

Question: For `CCn1cc(CN2CCCC(c3[nH]ncc3S(C)(=O)=O)C2)cn1` (configuration not stated), which cytotoxicity at 70.5 h is on record?
Answer: 1.9%

Question: With `Cn1cccc1CN1CCC2(CC1)CN(c1ccccc1)C(=O)CO2` as the compound, how does the cytotoxicity at 70.5 h read?
Answer: 2.21%

Question: With `CC(C)(C)c1nc(NS(=O)(=O)c2cccc(F)c2)no1` as the compound, how does the cytotoxicity at 70.5 h read?
Answer: -8.66%
